This is an account of results in ChEMBL document CHEMBL4196231, “Peptidomimetics for Targeting Protein-Protein Interactions between DOT1L and MLL Oncofusion Proteins AF9 and ENL” (ACS Med Chem Lett, 2018).

Square brackets hold non-standard residues; d marks the D form. Peptide text beside a SMILES is read from it. * marks the point of attachment. Biotinyl(3aR,4S,6aS) = O=C1N[C@H]2[C@H](CCCCC(=O)*)SC[C@H]2N1; X3 = c1ccc(-c2cn(CC3CCCCC3)c([C@@H]3CCCN3*)n2)cc1; Ala(cPent) = N[C@@H](CC1CCCC1)C(=O)O; Ala(cPr) = N[C@@H](CC1CC1)C(=O)O; Pentanoyl(4-Me) = CC(C)CCC(=O)*; Cba = N[C@@H](CC1CCC1)C(=O)O; Dap = NC[C@H](N)C(=O)O; Bz = O=C(c1ccccc1)*; Ahx = NCCCCCC(=O)O

In assay [1] the target is T1, Protein ENL (Homo sapiens, UniProt Q03111).
T1 sequence (Q03111 whole entry): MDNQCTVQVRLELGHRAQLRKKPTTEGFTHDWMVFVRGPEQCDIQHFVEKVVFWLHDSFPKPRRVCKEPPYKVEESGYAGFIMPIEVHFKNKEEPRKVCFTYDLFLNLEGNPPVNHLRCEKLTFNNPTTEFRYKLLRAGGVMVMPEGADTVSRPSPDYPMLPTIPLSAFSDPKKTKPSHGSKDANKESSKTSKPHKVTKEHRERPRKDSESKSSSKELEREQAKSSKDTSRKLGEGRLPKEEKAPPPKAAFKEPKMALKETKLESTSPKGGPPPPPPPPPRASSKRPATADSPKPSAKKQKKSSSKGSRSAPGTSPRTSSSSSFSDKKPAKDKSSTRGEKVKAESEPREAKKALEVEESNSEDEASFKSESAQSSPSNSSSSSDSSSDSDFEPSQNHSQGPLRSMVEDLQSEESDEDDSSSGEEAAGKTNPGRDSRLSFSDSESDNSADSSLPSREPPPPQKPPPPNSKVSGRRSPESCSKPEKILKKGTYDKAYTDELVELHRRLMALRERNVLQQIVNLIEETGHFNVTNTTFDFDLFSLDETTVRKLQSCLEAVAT
Kind of assay: Displacement of N-Flu-DOT1L from MBP-tagged ENL (unknown origin) (489 to 559 residues) expressed in Escherichia coli BL21(DE3) measured after 3 hrs by fluorescence polarization assay. On the technique in general: Polarisation of emitted light reports the rotation of a fluorescent probe.

For assay [2], the target named is T2, Protein AF-9 (Homo sapiens, UniProt P42568).
T2 sequence (P42568 whole entry): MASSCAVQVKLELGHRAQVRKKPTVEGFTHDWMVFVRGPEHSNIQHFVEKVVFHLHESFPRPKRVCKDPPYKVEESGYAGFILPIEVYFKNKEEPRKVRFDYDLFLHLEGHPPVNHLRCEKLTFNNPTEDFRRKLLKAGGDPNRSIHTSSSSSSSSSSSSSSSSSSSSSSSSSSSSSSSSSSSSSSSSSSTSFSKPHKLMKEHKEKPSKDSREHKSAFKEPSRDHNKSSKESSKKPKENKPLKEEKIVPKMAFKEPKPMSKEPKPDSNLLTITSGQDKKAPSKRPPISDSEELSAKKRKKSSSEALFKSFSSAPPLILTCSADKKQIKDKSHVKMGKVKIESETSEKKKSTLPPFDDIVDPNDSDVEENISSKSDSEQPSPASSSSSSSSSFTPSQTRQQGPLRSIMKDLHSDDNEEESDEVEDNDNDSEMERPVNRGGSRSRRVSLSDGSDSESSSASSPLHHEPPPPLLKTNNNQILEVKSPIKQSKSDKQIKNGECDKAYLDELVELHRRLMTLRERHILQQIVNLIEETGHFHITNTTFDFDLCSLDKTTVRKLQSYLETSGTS
Briefly: Displacement of N-Flu-DOT1L from MBP-tagged AF9 (unknown origin) (487 to 568 residues) expressed in Escherichia coli BL21(DE3) measured after 3 hrs by fluorescence polarization assay.

The target in assay [3] is T1, Protein ENL. Briefly: Binding affinity to MBP-tagged ENL (unknown origin) (489 to 559 residues) expressed in Escherichia coli BL21(DE3) by Bio-layer interferometry. For orientation: BLI is a label-free optical method that tracks binding on a fibre tip over time.
Assay [4] addresses T2, Protein AF-9. Briefly: Binding affinity to MBP-tagged AF9 (unknown origin) (487 to 568 residues) expressed in Escherichia coli BL21(DE3) by Bio-layer interferometry.

For `CC[C@H](C)[C@H](NC(=O)[C@H](CO)NC(=O)[C@H](CC1CC1)NC(=O)[C@@H]1CCCN1C(=O)[C@H](CC(C)C)NC(C)=O)C(=O)N1CCC[C@H]1C(=O)N[C@@H](CC(C)C)C(=O)N(C)C` (Ac-LP[Ala(cPr)]SIPL-NMe2), the IC50 – broadly, the concentration needed to halve the response being measured – in assay [1] was 14600 nM; in assay [2] it was 4290 nM. Besides, the Ki (as a rule, a dissociation constant, usually derived from enzyme kinetics or from competition with a known ligand) in assay [1] worked out at 4890 nM; in assay [2], 780 nM.

As for `CC[C@H](C)[C@H](NC(=O)[C@H](CO)NC(=O)[C@H](CC1CCC1)NC(=O)[C@@H]1CCCN1C(=O)[C@H](CC(C)C)NC(C)=O)C(=O)N1CCC[C@H]1C(=O)N[C@@H](CC(C)C)C(=O)N(C)C` (Ac-LP[Cba]SIPL-NMe2), the IC50 in assay [1] was determined as 23600 nM; in assay [2], 7230 nM. For the same compound, the Ki in assay [1] was determined as 8040 nM; in assay [2] it was 1310 nM.

As for `CC(C)[C@H](NC(=O)[C@@H]1CCCN1C(=O)c1ccccc1)C(=O)N[C@@H](CN)C(=O)N[C@@H](CC1CCCC1)C(=O)N1CCC[C@H]1c1nc(-c2ccccc2)cn1CC1CCCCC1` (Bz-PV[Dap][Ala(cPent)]-X3), in assay [1], the IC50 stood at 504 nM and affinity was put at a Ki of 119 nM. In assay [2], this compound yielded an IC50 of 57 nM and a Ki of 9 nM.

For `CC(C)C[C@H](NC(=O)[C@@H]1CCCN1C(=O)[C@H](CC1CCCC1)NC(=O)[C@H](CN)NC(=O)[C@@H](NC(=O)[C@@H]1CCCN1C(=O)[C@H](CC(C)C)NC(=O)CCCCCNC(=O)CCCC[C@@H]1SC[C@H]2NC(=O)N[C@@H]12)C(C)C)C(=O)N(C)C` ({Biotinyl(3aR,4S,6aS)-Ahx}-LPV[Dap][Ala(cPent)]PL-NMe2), the Ki in assay [1] amounted to 63 nM; in assay [2] it was 10 nM. Moreover, the Kd (in general, the equilibrium constant for the complex coming apart) worked out at 57 nM in assay [3] and 15 nM in assay [4].

In assay [1], `CC(C)CCC(=O)N1CCC[C@H]1C(=O)N[C@H](C(=O)N[C@@H](CN)C(=O)N[C@@H](CC1CCCC1)C(=O)N1CCC[C@H]1c1nc(-c2ccccc2)cn1CC1CCCCC1)C(C)C` ({Pentanoyl(4-Me)}-PV[Dap][Ala(cPent)]-X3) yielded an IC50 of 237 nM and a Ki of 56 nM. In addition, in assay [2], the IC50 was found to be 149 nM and the affinity, expressed as Ki, was 23 nM.

In the case of Ac-LPISIPL-NH2, the IC50 in assay [1] worked out at 10300 nM; in assay [2], 1040 nM. For the same compound, the Ki was 3370 nM in assay [1] and 160 nM in assay [2].

Ac-LPISIPLSTV-NH2: the IC50 in assay [1] amounted to 630 nM; in assay [2], 140 nM. The Ki is 150 nM in assay [1] and 20 nM in assay [2].

In assay [1], Ac-LPVSIPL-NH2 registered an IC50 of 4790 nM and a Ki of 1430 nM. For the same compound, in assay [2], the IC50 turned out to be 1020 nM and the Ki is 160 nM.
